Test [1] has as its system tetrabenazine-induced depression. Briefly: prevention of tetrabenazine-induced sedation and depression in mice (exploratory activity and ptosis). Type of test: in vivo, Carworth CF1 S female mice. As to conditions: for ED50: Mus musculus, po; for ED50 Ptosis / ED50 Exploratory: 60 min. From the text: A standard procedure for detecting and comparing the antidepressant activity of compounds in this series for which there is good correlation with human efficacy is the prevention of tetrabenazine-induced sedation and depression in mice. (Everett, "The Dopa Response Potentiation Test and Its Use in Screening for Antidepressant Drugs", pp. 164-167 in "Antidepressant Drugs" [Proceedings of the First International Symposium], S. Garattini and M. N. G. Dukes, eds., 1967.).
Groups of 10 Carworth CF1 S female mice, 18-21 g. each, were fasted 1.5 hours and were intubated with antagonist compounds at oral doses of 0, 5, 25, and 125 mg/kg or 0, 1, 3, 9, 27, and 81 mg/kg in 0.20 ml. of 1% Methocel (methylcellulose) 1.25% Tween 80. The mice were challenged 30 minutes later with tetrabenazine (as the methane-sulfonate), 32 mg/kg intraperitoneally (dissolved in 0.20 ml. 0.05M KCl at pH 2.0). One hour after antagonist (30 minutes after tetrabenazine), the mice were examined for signs of exploratory activity and ptosis (eyelid closure). Normal exploratory activity (relief from sedation) was recorded when a mouse lifted by the tail from a group of 10 in a testing box and placed on a stainless steel testing box lid (12.5" × 8" with 0.33" mesh) either turned its head horizontally 30° in both direction or moved to the edge of the screen within 10 seconds after being placed on the screen. Relief from ptosis was recorded when exactly 2 seconds after placing the mouse facing the observer, lid closure was less than 50% in both eyes.
For comparison, the marketed antidepressant Amitriptyline was also tested, and an ED50 (effective dose in 50% of the cases) was determined. The lower the ED50, the better the antidepressant.

The test system of test [2] is monoamine oxidase (MAO). Briefly: tryptamine potentiation in mice (monoamine oxidase inhibition). Type of test: in vivo. From the text:
(§1) An antidepressant which acts by inhibiting MAO is not acceptable.

Test [3] deals with hexabarbitol potentiation. Briefly: hexabarbitol potentiation in mice (sedative qualities). It is filed as in vivo.
Description: as §1

Setting [4] is: Table I, orally, 1 hour post-drug, tetrabenazine 32 mg/kg i.p. 30 min after drug, relief from ptosis.
Where [5] appears, read: Table I, orally, 1 hour post-drug, tetrabenazine 32 mg/kg i.p. 30 min after drug, relief from sedation (exploratory activity).
Setting [6] is: Table II (formula II compounds), orally, 1 hour post-drug, relief from ptosis, read-out: ED50 Ptosis.
[7] abbreviates: Table II (formula II compounds), orally, 1 hour post-drug, relief from sedation (exploratory activity), read-out: ED50 Exploratory.

Counter-ions that a name gives are not always drawn. Like-named read-outs stand apart in the source and are kept apart here.

For `CN(C)CCC=C1c2ccccc2CCc2ccccc21` [Amitriptylene . HCl, reference compound], the ED50 in test [1] (Table I, orally, 1 hour post-drug, tetrabenazine 32 mg/kg i.p. 30 min after drug, relief from ptosis, read-out: ED50 Ptosis) came to 1.5 mg/kg; in test [1] (Table I, orally, 1 hour post-drug, tetrabenazine 32 mg/kg i.p. 30 min after drug, relief from sedation (exploratory activity), read-out: ED50 Exploratory), 3.7 mg/kg.

Take `CN(C)CCCOC12c3ccccc3C3C(c4ccccc41)N32` (stereo not drawn) [CH2 CH2 CH2 N(CH3)2, 3-[(4b, 4c-Dihydro-8bH-azirino[2,1,3-cd]dibenzo[a,f]-pyrrolizin-8b-yl)oxy]propyl-N,N-dimethylamine]: the ED50 came out at 67 mg/kg in test [1] (1 h, read-out: ED50 Exploratory, Table I, orally, 1 hour post-drug, tetrabenazine 32 mg/kg i.p. 30 min after drug, relief from sedation (exploratory activity)) and 56 mg/kg in test [1] (1 h, read-out: ED50 Ptosis, Table I, orally, 1 hour post-drug, tetrabenazine 32 mg/kg i.p. 30 min after drug, relief from ptosis).

In the case of `CN(C)CCOC12c3ccccc3C3C(c4ccccc41)N32` (stereo not drawn) [CH2 CH2 N(CH3)2 . Maleate, 2-[4b, 4c-Dihydro-8bH-azirino[2,1,3-cd]dibenzo[a,f]pyrrolizin-8b-yl)oxy]ethyl-N,N-dimethylamine Maleate], the “ED50 Ptosis” value in test [1] (setting [4]) turned out to be 8 mg/kg. The “ED50 Exploratory” value in test [1] (setting [5]) is given as 9 mg/kg.

For the compound `CN(C)CCOC12NC(c3ccccc31)C(Cl)c1ccccc12` (stereo not drawn) [CH2 CH2 N(CH3)2 H Cl, 10,11-Dihydro-5,10-imino-5-[2-(N,N-dimethylamino)-ethoxy]-11-chloro-5H-dibenzo[a,d]cycloheptene], the values for the ED50 in test [1] (setting [6]) and in test [1] (setting [7]) were 15 mg/kg and 25 mg/kg, respectively.

Turning to `CN(C)CCOC12NC(Cc3ccccc31)c1ccccc12` (stereo not drawn) [CH2 CH2 N(CH3)2 H H, 10,11-Dihydro-5,10-imino-5-[2-(N,N-dimethylamino)-ethoxy]-5H-dibenzo[a,d]cycloheptene], the ED50 in test [1] (setting [6]) and in test [1] (setting [7]) was 15 mg/kg in each case.

As for `CN(C)CCOC12c3ccccc3C3C(c4ccccc41)N32` (stereo not drawn) [CH2 CH2 N(CH3)2, 2-[(4b, 4c-Dihydro-8bH-azirino[2,1,3-cd]dibenzo[a,f]pyrrolizin-8b-yl)oxy]ethyl-N,N-dimethylamine], the “monoamine oxidase (MAO) inhibition” value in test [2] (implied by lack of tryptamine potentiation in mice) is “not a monoamine oxidase (MAO) inhibitor”. For the same compound, the potentiation of tryptamine entry in test [2] (in mice) is “not to potentiate tryptamine in mice”. The “ED50 Ptosis” value in test [1] (setting [4]) was 2 mg/kg. In addition, in test [1] (setting [5]), the “ED50 Exploratory” value was determined as 2 mg/kg. In addition, the sedative qualities entry in test [3] (implied by hexabarbitol potentiation in mice, at high doses) is recorded as “sedative qualities at high doses”. Besides, in test [3] (in mice), the potentiation of hexabarbitol result is “potentiates hexabarbitol in mice”.

For `NCCOC12c3ccccc3C3C(c4ccccc41)N32` (stereo not drawn) [CH2 CH2 NH2 . Maleate], the “ED50 Ptosis” value in test [1] (setting [4]) came to 10.3 mg/kg. The “ED50 Exploratory” value in test [1] (setting [5]) is recorded as 11.8 mg/kg.

For `NCCOC12c3ccccc3C3C(c4ccccc41)N32` (stereo not drawn) [CH2 CH2 NH2 . Tartate], the “ED50 Ptosis” value in test [1] (setting [4]) is given as 2.7 mg/kg. In test [1] (setting [5]), the “ED50 Exploratory” value came out at 3.3 mg/kg.

On to `NCCOC12NC(c3ccccc31)C(Cl)c1ccccc12` (stereo not drawn) [CH2 CH2 NH2 H Cl, 10,11-Dihydro-5,10-imino-5-(2-aminoethoxy)-11-chloro-5H-dibenzo[a,d]cycloheptene], for which the ED50 in test [1] (setting [6]) and in test [1] (setting [7]) was 37 mg/kg each time.

`NCCOC12c3ccccc3C3C(c4ccccc41)N32` (stereo not drawn) [CH2 CH2 NH2]: the “ED50 Ptosis” value in test [1] (setting [4]) is listed as 1 mg/kg. The “ED50 Exploratory” value in test [1] (setting [5]) is 2 mg/kg.

For the origin of these results see patent US4123546A, “Antidepressant compounds” (E. I. Du Pont de Nemours and Company, priority 1977, dated 1978).
